# From ChEMBL document CHEMBL5465560, “Selectivity Literature for EUbOPEN Chemogenomic Library” (2024)
# Key:
# [1] = target: Serine/threonine-protein kinase WNK2 (Homo sapiens) (UniProt Q9Y3S1); experiment: Selectivity interaction (KinomeScan (DiscoverX)) EUB0001049a WNK2; settings: at 1 µM
# [2] = target: Serine/threonine-protein kinase PLK1 (Homo sapiens, UniProt P53350); experiment: Selectivity interaction (Kinase panel (literature)) EUB0001199aCl PLK1; settings: at 1 µM
# [3] = target: T1, Mitogen-activated protein kinase kinase kinase 5 (Homo sapiens) (UniProt Q99683); settings: at 10 µM
# T1 sequence (whole entry): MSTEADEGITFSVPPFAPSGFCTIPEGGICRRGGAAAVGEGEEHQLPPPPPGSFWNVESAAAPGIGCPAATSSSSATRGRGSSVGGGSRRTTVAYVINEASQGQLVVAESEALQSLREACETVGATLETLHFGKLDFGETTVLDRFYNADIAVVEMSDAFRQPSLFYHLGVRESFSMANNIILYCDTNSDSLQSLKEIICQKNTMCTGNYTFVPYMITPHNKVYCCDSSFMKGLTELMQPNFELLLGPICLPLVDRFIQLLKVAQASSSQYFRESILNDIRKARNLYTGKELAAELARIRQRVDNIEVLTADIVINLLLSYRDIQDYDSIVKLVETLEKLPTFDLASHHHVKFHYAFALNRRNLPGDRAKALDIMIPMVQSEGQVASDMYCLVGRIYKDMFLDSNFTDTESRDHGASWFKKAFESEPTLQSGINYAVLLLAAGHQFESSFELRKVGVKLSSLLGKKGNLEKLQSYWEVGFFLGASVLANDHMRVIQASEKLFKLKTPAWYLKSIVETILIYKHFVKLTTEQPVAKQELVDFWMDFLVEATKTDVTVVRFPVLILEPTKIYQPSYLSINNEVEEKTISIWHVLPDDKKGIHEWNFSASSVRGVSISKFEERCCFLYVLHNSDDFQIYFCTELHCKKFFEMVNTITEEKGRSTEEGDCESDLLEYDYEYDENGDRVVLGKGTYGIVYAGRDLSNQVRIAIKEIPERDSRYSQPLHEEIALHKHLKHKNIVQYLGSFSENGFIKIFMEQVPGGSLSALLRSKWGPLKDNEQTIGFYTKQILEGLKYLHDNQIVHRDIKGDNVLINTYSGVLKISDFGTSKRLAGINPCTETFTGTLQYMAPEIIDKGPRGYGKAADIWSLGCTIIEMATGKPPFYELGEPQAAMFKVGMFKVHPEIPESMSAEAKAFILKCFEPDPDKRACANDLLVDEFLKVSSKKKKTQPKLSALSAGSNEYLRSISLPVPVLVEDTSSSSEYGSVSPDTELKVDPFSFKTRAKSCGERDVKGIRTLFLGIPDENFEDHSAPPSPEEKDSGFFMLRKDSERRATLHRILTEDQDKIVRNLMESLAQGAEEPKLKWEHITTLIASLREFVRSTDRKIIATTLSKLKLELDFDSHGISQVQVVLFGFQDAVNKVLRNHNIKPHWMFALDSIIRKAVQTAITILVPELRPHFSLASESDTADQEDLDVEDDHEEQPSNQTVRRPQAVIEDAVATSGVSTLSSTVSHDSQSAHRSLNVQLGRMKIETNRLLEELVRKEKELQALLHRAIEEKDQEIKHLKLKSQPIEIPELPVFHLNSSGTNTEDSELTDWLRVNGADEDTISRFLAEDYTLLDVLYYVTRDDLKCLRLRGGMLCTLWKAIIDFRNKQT
# [4] = target: Cyclin-dependent kinase 15 (Homo sapiens) (UniProt Q96Q40); experiment: Selectivity interaction (KinomeScan (DiscoverX)) EUB0000618a CDK15; settings: at 10 µM
# [5] = target: Eukaryotic translation initiation factor 2-alpha kinase 1 (Homo sapiens) (UniProt Q9BQI3); experiment: Selectivity interaction (KinomeScan (DiscoverX)) EUB0000618a EIF2AK1; settings: at 10 µM
# [6] = target: T2, Serine/threonine-protein kinase Chk1 (Homo sapiens) (UniProt O14757); experiment: Selectivity interaction (ProQinase) EUB0000171b CHEK1
# T2 sequence (whole entry): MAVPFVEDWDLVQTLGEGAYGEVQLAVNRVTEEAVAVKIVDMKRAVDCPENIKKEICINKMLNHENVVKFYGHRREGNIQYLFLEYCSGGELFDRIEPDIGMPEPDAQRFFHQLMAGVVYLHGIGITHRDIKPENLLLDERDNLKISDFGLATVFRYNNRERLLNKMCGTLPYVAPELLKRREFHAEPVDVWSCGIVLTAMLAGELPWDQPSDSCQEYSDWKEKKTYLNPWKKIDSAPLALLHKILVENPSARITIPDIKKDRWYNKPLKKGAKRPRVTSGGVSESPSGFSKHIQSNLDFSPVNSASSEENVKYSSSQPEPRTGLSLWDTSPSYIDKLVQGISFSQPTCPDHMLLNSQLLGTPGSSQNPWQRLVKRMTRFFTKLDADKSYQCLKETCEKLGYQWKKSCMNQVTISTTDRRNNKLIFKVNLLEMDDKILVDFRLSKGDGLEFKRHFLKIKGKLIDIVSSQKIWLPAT
# [7] = target: Tyrosine-protein kinase FRK (Homo sapiens) (UniProt P42685); experiment: Selectivity interaction (ProQinase) EUB0000171b FRK
# Tyrosine-protein kinase FRK (Homo sapiens), sequence (P42685 whole entry): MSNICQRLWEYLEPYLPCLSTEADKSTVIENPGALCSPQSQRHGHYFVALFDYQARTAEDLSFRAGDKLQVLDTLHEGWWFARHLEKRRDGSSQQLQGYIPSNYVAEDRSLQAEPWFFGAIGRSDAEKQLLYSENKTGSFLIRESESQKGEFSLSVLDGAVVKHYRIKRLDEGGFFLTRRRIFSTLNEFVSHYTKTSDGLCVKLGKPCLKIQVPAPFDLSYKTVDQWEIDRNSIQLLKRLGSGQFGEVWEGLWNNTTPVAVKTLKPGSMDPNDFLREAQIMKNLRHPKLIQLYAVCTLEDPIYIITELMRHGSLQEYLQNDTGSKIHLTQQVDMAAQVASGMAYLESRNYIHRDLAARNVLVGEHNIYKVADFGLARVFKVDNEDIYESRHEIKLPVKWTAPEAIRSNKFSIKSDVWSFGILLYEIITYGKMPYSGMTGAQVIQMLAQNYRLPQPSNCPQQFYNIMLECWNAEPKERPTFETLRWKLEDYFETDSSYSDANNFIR
# Serine/threonine-protein kinase PLK1, sequence (P53350 whole entry): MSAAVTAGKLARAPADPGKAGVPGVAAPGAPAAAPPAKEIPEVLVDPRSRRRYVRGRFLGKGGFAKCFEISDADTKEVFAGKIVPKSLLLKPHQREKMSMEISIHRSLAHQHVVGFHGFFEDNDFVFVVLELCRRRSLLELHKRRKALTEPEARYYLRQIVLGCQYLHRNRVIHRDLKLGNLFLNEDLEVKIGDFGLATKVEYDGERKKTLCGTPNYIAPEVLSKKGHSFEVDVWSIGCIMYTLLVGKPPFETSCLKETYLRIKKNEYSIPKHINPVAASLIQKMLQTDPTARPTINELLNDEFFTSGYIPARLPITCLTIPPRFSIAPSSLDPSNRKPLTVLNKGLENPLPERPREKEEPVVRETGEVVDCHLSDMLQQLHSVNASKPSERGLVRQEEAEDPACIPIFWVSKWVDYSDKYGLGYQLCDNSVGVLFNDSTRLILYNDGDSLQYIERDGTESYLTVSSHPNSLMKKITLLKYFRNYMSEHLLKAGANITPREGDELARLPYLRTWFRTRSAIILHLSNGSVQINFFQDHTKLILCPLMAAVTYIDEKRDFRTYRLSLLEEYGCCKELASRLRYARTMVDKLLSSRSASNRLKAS
# Cyclin-dependent kinase 15 (Homo sapiens), sequence (Q96Q40 whole entry): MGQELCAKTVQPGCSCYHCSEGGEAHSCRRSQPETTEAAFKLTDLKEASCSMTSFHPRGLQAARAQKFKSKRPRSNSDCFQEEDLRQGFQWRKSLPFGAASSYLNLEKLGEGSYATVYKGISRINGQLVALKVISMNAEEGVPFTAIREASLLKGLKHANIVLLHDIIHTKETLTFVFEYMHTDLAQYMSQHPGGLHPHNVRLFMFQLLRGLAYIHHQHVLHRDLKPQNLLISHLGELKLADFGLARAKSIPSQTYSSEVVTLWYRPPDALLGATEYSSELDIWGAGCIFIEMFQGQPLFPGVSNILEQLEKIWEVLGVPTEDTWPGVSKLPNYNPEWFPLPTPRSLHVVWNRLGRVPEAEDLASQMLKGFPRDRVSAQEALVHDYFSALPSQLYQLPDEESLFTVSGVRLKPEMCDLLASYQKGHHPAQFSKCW
# Eukaryotic translation initiation factor 2-alpha kinase 1 (Homo sapiens), sequence (Q9BQI3 whole entry): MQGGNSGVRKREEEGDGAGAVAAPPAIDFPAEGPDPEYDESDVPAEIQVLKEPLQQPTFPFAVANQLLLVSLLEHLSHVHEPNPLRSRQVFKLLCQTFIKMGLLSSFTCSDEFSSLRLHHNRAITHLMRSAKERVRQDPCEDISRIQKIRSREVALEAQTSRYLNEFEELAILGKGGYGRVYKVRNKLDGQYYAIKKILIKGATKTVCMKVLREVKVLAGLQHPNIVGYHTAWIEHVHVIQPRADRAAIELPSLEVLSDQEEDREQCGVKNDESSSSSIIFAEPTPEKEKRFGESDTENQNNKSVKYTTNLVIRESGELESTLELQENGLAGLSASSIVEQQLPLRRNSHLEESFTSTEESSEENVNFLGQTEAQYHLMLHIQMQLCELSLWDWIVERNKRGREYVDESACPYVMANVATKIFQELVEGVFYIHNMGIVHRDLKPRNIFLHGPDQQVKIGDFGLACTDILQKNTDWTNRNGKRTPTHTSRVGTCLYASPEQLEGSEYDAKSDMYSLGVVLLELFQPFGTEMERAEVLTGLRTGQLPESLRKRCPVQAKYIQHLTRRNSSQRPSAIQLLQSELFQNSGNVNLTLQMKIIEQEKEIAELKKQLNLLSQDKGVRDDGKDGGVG
# Serine/threonine-protein kinase WNK2 (Homo sapiens), sequence (Q9Y3S1 whole entry): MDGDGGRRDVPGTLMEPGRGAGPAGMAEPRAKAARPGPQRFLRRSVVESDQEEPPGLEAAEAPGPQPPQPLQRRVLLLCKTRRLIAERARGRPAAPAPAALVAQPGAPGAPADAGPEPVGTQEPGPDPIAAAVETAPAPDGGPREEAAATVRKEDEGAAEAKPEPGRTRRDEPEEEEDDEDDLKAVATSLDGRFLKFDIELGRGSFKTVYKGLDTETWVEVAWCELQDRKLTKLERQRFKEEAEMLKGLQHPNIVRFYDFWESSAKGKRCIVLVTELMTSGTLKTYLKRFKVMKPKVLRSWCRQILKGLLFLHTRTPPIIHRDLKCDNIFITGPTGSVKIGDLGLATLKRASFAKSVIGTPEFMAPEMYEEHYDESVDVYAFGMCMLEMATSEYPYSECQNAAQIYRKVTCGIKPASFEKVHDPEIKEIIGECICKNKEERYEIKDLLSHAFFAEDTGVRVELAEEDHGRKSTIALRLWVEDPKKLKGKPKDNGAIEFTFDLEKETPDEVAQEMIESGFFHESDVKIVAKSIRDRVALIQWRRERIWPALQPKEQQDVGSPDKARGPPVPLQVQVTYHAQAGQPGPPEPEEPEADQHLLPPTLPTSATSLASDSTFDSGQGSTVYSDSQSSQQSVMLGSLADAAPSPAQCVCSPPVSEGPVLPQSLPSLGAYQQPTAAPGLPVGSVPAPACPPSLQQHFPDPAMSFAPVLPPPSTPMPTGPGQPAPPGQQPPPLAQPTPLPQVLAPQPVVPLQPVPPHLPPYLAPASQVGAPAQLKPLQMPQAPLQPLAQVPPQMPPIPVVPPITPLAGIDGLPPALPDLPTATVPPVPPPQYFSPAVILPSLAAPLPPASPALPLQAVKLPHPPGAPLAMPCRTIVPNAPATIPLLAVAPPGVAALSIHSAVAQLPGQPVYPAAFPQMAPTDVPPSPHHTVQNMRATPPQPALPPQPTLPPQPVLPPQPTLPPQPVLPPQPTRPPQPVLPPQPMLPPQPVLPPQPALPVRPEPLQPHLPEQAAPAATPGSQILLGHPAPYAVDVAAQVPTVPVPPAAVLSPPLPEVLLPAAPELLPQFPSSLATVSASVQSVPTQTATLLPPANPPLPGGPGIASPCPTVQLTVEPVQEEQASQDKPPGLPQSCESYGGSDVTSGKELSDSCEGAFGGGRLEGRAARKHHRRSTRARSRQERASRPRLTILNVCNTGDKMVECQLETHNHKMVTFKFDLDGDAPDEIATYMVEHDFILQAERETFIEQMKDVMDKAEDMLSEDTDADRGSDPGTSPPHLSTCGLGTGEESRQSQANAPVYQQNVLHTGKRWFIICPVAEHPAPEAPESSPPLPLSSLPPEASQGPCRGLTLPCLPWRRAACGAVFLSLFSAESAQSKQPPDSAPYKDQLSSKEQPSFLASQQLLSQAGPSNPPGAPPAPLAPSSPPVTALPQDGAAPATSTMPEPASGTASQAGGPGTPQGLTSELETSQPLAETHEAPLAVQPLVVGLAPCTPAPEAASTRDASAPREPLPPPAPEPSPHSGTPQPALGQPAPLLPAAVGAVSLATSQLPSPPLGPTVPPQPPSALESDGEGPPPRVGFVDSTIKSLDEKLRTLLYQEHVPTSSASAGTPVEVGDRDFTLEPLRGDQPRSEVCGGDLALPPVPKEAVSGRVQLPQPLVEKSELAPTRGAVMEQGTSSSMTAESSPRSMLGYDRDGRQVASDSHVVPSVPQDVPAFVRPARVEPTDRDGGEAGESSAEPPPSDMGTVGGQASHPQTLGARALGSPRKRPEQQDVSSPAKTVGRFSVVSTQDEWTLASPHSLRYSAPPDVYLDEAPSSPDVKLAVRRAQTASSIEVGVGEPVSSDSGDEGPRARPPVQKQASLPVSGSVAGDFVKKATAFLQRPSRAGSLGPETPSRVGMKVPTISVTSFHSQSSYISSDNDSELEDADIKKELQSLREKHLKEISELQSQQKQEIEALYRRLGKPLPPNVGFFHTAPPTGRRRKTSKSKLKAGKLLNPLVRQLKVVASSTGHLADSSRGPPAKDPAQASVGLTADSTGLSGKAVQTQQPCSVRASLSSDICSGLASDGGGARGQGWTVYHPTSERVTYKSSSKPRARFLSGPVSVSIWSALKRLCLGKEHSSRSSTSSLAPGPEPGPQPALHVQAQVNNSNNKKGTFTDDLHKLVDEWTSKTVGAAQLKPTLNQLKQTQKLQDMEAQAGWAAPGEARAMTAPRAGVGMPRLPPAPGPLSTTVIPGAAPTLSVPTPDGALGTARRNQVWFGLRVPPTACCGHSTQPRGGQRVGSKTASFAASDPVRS
smiles,measurement,setting,value
COc1cc(Nc2nc(C)cc(-c3cnn4nc(OC)ccc34)n2)cc(C(F)(F)F)c1,% of control,[1],100%
CN1Cc2nccc(-c3cn(C)nc3-c3ccc(F)cc3)c2C1=O,% of inhibition,[2],-3%
CCN(CC)CCCCNc1ncc2cc(-c3cc(OC)cc(OC)c3)c(NC(=O)NC(C)(C)C)nc2n1,% of control,[3],100%
O[C@H]1CC[C@H](Nc2ncc3nc(Nc4c(F)cc(F)cc4F)n([C@H]4CCOC4)c3n2)CC1,% of control,[4],100%
same,% of control,[5],100%
C=CC(=O)Nc1cccc(C(=O)Nc2ccc(Nc3cc(-c4[nH]c(SC)nc4C)ccn3)cc2)c1,% of control,[6]; at 1 µM,94%
same,% of control,[6]; at 5 µM,100%
same,% of control,[7]; at 1 µM,99%
same,% of control,[7]; at 5 µM,75%
